Reference: ChEMBL document CHEMBL1201862, “PubChem BioAssay data set” (2004)
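Following 48 hours of exposure in 96-well plates, responses at five concentrations were used to interpolate endpoints linearly. GI50 marks 50% less growth.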 Active and inactive are the calls of the source. Rule as the data show it: active = GI50 up to about 1.1 µM and inactive = higher.

What was measured:
Assay in all cases: inhibition of tumour cell growth, NCI panel, 48 h
SF-539 = system: SF-539
LOX IMVI = system: LOX IMVI
UO-31 = system: UO-31
HCT-116 = system: HCT-116
NCI-H522 = system: NCI-H522
SW-620 = system: SW-620
SN12C = system: SN12C
A549 = system: A549
Malme-3M = system: Malme-3M
MCF7 = system: MCF7
SF-268 = system: SF-268
KM12 = system: KM12
SK-MEL-5 = system: SK-MEL-5
SK-MEL-28 = system: SK-MEL-28
K562 = system: K562
RPMI-8226 = system: RPMI-8226
UACC-62 = system: UACC-62
OVCAR-4 = system: OVCAR-4
HOP-62 = system: HOP-62
SF-295 = system: SF-295

SMILES	GI50 (SF-539)	GI50 (LOX IMVI)	GI50 (UO-31)	GI50 (HCT-116)	GI50 (NCI-H522)	GI50 (SW-620)	GI50 (SN12C)	GI50 (A549)	GI50 (Malme-3M)	GI50 (MCF7)	GI50 (SF-268)	GI50 (KM12)	GI50 (SK-MEL-5)	GI50 (SK-MEL-28)	GI50 (K562)	GI50 (RPMI-8226)	GI50 (UACC-62)	GI50 (OVCAR-4)	GI50 (HOP-62)	GI50 (SF-295)
N#CC1C=Cc2ccccc2N1C(=O)Oc1ccccc1 (configuration not stated)	69.8 µM (inactive)	39.9 µM (inactive)	41.7 µM (inactive)	38.7 µM (inactive)	22 µM (inactive)	36.2 µM (inactive)	45.9 µM (inactive)	49.2 µM (inactive)	48.4 µM (inactive)	41.8 µM (inactive)	55.1 µM (inactive)	37.2 µM (inactive)	46.5 µM (inactive)	> 100 µM (inactive)	32.3 µM (inactive)	21.3 µM (inactive)	52.7 µM (inactive)	40.6 µM (inactive)	–	–
O=C(O)CN(CC(=O)O)Cc1ccn(-c2cccc(-n3ccc(CN(CC(=O)O)CC(=O)O)n3)n2)n1	> 100 µM (inactive)	–	93.8 µM (inactive)	> 100 µM (inactive)	> 100 µM (inactive)	> 100 µM (inactive)	> 100 µM (inactive)	17.4 µM (inactive)	> 100 µM (inactive)	> 100 µM (inactive)	> 100 µM (inactive)	> 100 µM (inactive)	> 100 µM (inactive)	> 100 µM (inactive)	–	> 100 µM (inactive)	> 100 µM (inactive)	–	> 100 µM (inactive)	> 100 µM (inactive)
COC(=O)c1c(O)ccc2c1c1c(n2Cc2cc(OC)cc(OC)c2)C(=O)c2ccccc2C1=O	11.5 µM (inactive)	8.67 µM (inactive)	4.56 µM (inactive)	4.74 µM (inactive)	3.03 µM (inactive)	9.51 µM (inactive)	6.03 µM (inactive)	5.07 µM (inactive)	6.34 µM (inactive)	4.63 µM (inactive)	8.32 µM (inactive)	3.23 µM (inactive)	8.83 µM (inactive)	13.7 µM (inactive)	5.28 µM (inactive)	2.99 µM (inactive)	–	9.93 µM (inactive)	9.29 µM (inactive)	11.4 µM (inactive)
CC(=O)Oc1cc(Cl)c(C)c2c1[C@H]1CC[C@]3(C)[C@@H](OC(C)=O)CC[C@H]3[C@@H]1CC2	> 100 µM (inactive)	> 100 µM (inactive)	> 100 µM (inactive)	54.6 µM (inactive)	> 100 µM (inactive)	> 100 µM (inactive)	> 100 µM (inactive)	> 100 µM (inactive)	> 100 µM (inactive)	83.4 µM (inactive)	> 100 µM (inactive)	> 100 µM (inactive)	> 100 µM (inactive)	> 100 µM (inactive)	78.5 µM (inactive)	29.5 µM (inactive)	35 µM (inactive)	–	> 100 µM (inactive)	> 100 µM (inactive)
CCOC(=O)C1C[C@H]2CO[C@H](c3ccccc3)N2C1=O (some centres not stated)	> 100 µM (inactive)	> 100 µM (inactive)	> 100 µM (inactive)	> 100 µM (inactive)	> 100 µM (inactive)	> 100 µM (inactive)	> 100 µM (inactive)	> 100 µM (inactive)	> 100 µM (inactive)	> 100 µM (inactive)	> 100 µM (inactive)	> 100 µM (inactive)	> 100 µM (inactive)	> 100 µM (inactive)	> 100 µM (inactive)	> 100 µM (inactive)	> 100 µM (inactive)	> 100 µM (inactive)	–	> 100 µM (inactive)
O=C(Nn1c(-c2ccccc2)nc2ccccc2c1=O)c1ccc(O)cc1	> 100 µM (inactive)	–	> 100 µM (inactive)	> 100 µM (inactive)	> 100 µM (inactive)	> 100 µM (inactive)	> 100 µM (inactive)	> 100 µM (inactive)	> 100 µM (inactive)	> 100 µM (inactive)	> 100 µM (inactive)	> 100 µM (inactive)	> 100 µM (inactive)	> 100 µM (inactive)	> 100 µM (inactive)	> 100 µM (inactive)	> 100 µM (inactive)	> 100 µM (inactive)	> 100 µM (inactive)	> 100 µM (inactive)
NCc1nnn(Cc2ccccc2)c1N	> 100 µM (inactive)	> 100 µM (inactive)	–	> 100 µM (inactive)	> 100 µM (inactive)	> 100 µM (inactive)	> 100 µM (inactive)	> 100 µM (inactive)	> 100 µM (inactive)	> 100 µM (inactive)	> 100 µM (inactive)	> 100 µM (inactive)	> 100 µM (inactive)	> 100 µM (inactive)	> 100 µM (inactive)	> 100 µM (inactive)	> 100 µM (inactive)	> 100 µM (inactive)	> 100 µM (inactive)	> 100 µM (inactive)
O=CC1=C(C(=O)OC(c2ccccc2)c2ccccc2)N2C(=O)[C@@H](NC(=O)Cc3cccs3)[C@H]2SC1	> 100 µM (inactive)	> 100 µM (inactive)	40 µM (inactive)	83 µM (inactive)	64.3 µM (inactive)	> 100 µM (inactive)	> 100 µM (inactive)	> 100 µM (inactive)	> 100 µM (inactive)	> 100 µM (inactive)	–	91.2 µM (inactive)	> 100 µM (inactive)	–	> 100 µM (inactive)	79.4 µM (inactive)	> 100 µM (inactive)	> 100 µM (inactive)	–	> 100 µM (inactive)
O=C1c2[nH]c3ccccc3c2CCN2CCCCC12 (configuration not stated)	21.1 µM (inactive)	22.3 µM (inactive)	–	23.6 µM (inactive)	20.3 µM (inactive)	26.1 µM (inactive)	35.6 µM (inactive)	24.9 µM (inactive)	25.6 µM (inactive)	32.1 µM (inactive)	33.8 µM (inactive)	17.7 µM (inactive)	–	37.4 µM (inactive)	23.2 µM (inactive)	17.7 µM (inactive)	18.8 µM (inactive)	27.5 µM (inactive)	29.3 µM (inactive)	25.1 µM (inactive)
N#CCC(=O)Nn1c(CC#N)nnc1Cc1ccccc1	> 100 µM (inactive)	–	> 100 µM (inactive)	> 100 µM (inactive)	> 100 µM (inactive)	> 100 µM (inactive)	> 10 µM (inactive)	> 100 µM (inactive)	> 100 µM (inactive)	> 100 µM (inactive)	> 100 µM (inactive)	> 100 µM (inactive)	> 100 µM (inactive)	> 100 µM (inactive)	> 100 µM (inactive)	> 100 µM (inactive)	> 100 µM (inactive)	–	> 100 µM (inactive)	> 100 µM (inactive)
O=C1/C(=C/c2ccc([N+](=O)[O-])cc2)CCCc2ccccc21	76.2 µM (inactive)	> 100 µM (inactive)	> 100 µM (inactive)	> 100 µM (inactive)	> 100 µM (inactive)	> 100 µM (inactive)	> 100 µM (inactive)	> 100 µM (inactive)	> 100 µM (inactive)	> 100 µM (inactive)	30.4 µM (inactive)	> 100 µM (inactive)	–	> 100 µM (inactive)	> 100 µM (inactive)	> 100 µM (inactive)	91 µM (inactive)	> 100 µM (inactive)	54.3 µM (inactive)	63.5 µM (inactive)
O=C1CC(=O)NC(NNS(=O)(=O)c2ccccc2)=N1	> 100 µM (inactive)	–	> 100 µM (inactive)	> 100 µM (inactive)	> 100 µM (inactive)	> 100 µM (inactive)	> 100 µM (inactive)	> 100 µM (inactive)	> 100 µM (inactive)	> 100 µM (inactive)	> 100 µM (inactive)	> 100 µM (inactive)	> 100 µM (inactive)	> 100 µM (inactive)	> 100 µM (inactive)	> 100 µM (inactive)	> 100 µM (inactive)	> 100 µM (inactive)	> 100 µM (inactive)	> 100 µM (inactive)
COc1ccc2c(c1)C(N)=C(c1ccccc1)C2=O	> 100 µM (inactive)	> 100 µM (inactive)	–	58.3 µM (inactive)	> 100 µM (inactive)	> 100 µM (inactive)	99.3 µM (inactive)	64.6 µM (inactive)	> 100 µM (inactive)	> 100 µM (inactive)	27 µM (inactive)	36.6 µM (inactive)	49.1 µM (inactive)	> 100 µM (inactive)	–	96.4 µM (inactive)	> 100 µM (inactive)	> 100 µM (inactive)	> 100 µM (inactive)	97.1 µM (inactive)
C=CCOc1ccc(C2c3c(n[nH]c3O)CC(O)(OCC)C2C(=O)OCC)cc1OC (configuration not stated)	> 100 µM (inactive)	> 100 µM (inactive)	> 100 µM (inactive)	> 100 µM (inactive)	> 100 µM (inactive)	> 100 µM (inactive)	> 100 µM (inactive)	> 100 µM (inactive)	> 100 µM (inactive)	> 100 µM (inactive)	> 100 µM (inactive)	> 100 µM (inactive)	> 100 µM (inactive)	> 100 µM (inactive)	–	> 100 µM (inactive)	0.1 µM (active)	> 100 µM (inactive)	> 100 µM (inactive)	> 100 µM (inactive)
COc1cc(C(=O)OC2CC34CCNC35CC(OC5(OC)C2O)c2cc3c(cc24)OCO3)ccc1O (configuration not stated)	> 100 µM (inactive)	> 100 µM (inactive)	–	> 100 µM (inactive)	> 100 µM (inactive)	> 100 µM (inactive)	> 100 µM (inactive)	> 100 µM (inactive)	8.11 µM (inactive)	> 100 µM (inactive)	> 100 µM (inactive)	> 100 µM (inactive)	> 100 µM (inactive)	> 100 µM (inactive)	> 100 µM (inactive)	> 100 µM (inactive)	> 100 µM (inactive)	> 100 µM (inactive)	> 100 µM (inactive)	> 100 µM (inactive)
